Earlier results as cited in patent US5470884A, “Anti-acne compositions” (Procter & Gamble, priority 1994, dated 1995).

Tested on: skin
Conditions: excessive drying, scaling, swelling, burning, peeling, redness, allergic contact dermatitis, sensitization

O=C(OOC(=O)c1ccccc1)c1ccccc1 [benzoyl peroxide]
skin irritation: very irritating to the skin
